Reference: ChEMBL document CHEMBL1133249, “Combined tachykinin receptor antagonist: synthesis and stereochemical structure-activity relationships of novel morpholine analogues” (Bioorg Med Chem Lett, 2000)
pIC50: −log10 of the molar value.

Assays:
Substance-K receptor = molecular target: T1, Substance-K receptor (Cavia porcellus, UniProt Q64077); experiment: The compound was evaluated in vitro for its ability to displace [3H]SP from Tachykinin receptor 2 of male guinea pig lung membrane; type: tissue-based
T1 sequence (Q64077 whole entry): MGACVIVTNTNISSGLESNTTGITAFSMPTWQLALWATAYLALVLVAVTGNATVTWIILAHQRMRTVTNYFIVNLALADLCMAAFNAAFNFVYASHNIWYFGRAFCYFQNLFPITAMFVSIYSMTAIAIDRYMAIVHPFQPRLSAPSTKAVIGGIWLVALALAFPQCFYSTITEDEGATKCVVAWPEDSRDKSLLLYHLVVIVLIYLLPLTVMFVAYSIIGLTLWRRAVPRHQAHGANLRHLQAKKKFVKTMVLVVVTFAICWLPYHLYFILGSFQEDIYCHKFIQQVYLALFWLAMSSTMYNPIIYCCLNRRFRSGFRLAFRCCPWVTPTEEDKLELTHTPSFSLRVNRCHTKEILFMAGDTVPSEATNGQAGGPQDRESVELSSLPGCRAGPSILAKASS

Neuromedin-K receptor = molecular target: T2, Neuromedin-K receptor (Cavia porcellus, UniProt P30098); experiment: The compound was evaluated in vitro for its ability to displace [3H]SP from Tachykinin receptor 3 of male guinea pig lung membrane; type: tissue-based
T2 sequence (P30098 whole entry): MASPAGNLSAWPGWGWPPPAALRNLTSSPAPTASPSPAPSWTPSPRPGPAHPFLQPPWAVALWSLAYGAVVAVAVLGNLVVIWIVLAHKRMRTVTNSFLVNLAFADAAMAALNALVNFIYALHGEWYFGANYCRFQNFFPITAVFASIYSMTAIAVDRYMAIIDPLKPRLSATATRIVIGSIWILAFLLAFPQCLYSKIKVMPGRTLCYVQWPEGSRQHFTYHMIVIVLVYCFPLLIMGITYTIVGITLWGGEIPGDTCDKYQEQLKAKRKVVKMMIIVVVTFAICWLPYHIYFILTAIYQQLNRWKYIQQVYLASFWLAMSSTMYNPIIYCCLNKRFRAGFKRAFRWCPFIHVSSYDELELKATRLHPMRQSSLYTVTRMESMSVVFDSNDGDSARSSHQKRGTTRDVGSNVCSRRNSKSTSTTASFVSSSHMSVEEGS

Substance-P receptor = Substance-P receptor (Cavia porcellus, UniProt P30547); experiment: The compound was evaluated in vitro for its ability to displace [3H]SP from Tachykinin receptor 1 of male guinea pig lung membrane; type: tissue-based
Chain of Substance-P receptor (P30547 whole entry): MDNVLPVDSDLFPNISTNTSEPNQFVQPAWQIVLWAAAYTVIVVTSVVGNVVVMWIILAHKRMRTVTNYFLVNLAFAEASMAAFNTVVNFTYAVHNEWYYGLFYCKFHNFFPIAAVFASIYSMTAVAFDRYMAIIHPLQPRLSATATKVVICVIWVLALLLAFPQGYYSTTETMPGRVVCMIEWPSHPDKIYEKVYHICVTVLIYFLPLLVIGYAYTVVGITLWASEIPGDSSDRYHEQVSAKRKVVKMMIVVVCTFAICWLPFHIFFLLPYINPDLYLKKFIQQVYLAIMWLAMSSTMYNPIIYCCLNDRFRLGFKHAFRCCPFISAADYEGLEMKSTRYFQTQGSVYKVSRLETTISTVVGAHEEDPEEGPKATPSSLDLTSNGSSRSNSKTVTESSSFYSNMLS

Cavia porcellus [1] = experiment: Inhibitory effect was evaluated after intravenous administration on bronchoconstriction induced by NKB receptor in guinea pigs; type: functional; details: read-out: ID50 (the source's name)
Cavia porcellus [2] = experiment: Inhibitory effect was evaluated after intravenous administration on bronchoconstriction induced by NKA receptor in guinea pigs; type: functional; details: read-out: ID50 (the source's name)
Cavia porcellus [3] = experiment: Inhibitory effect of compound was evaluated after intravenous administration on SP-induced plasma protein extravasation, mediated by NK1 receptors in guinea pig airways; type: functional; details: read-out: ID50 (the source's name)

Row | SMILES | pIC50 (Substance-K receptor) | pIC50 (Neuromedin-K receptor) | pIC50 (Substance-P receptor) | ED50 (Cavia porcellus [1]) [mg/kg] | ED50 (Cavia porcellus [2]) [mg/kg] | ED50 (Cavia porcellus [3]) [mg/kg]
1 | COc1cc(C(=O)N2CCO[C@](CCN3CCC4(CC3)c3ccccc3C[S@@+]4[O-])(c3ccc(Cl)c(Cl)c3)C2)cc(OC)c1OC | 7.23 | 7.96 | 6.66 | – | – | –
2 | COc1cc(C(=O)N2CCO[C@@](CCN3CCC4(CC3)c3ccccc3C[S@+]4[O-])(c3ccc(Cl)c(Cl)c3)C2)cc(OC)c1OC | < 6.00 | 6.28 | < 6.00 | – | – | –
3 | COc1cc(C(=O)N2CCO[C@](CCN3CCC4(CC3)c3ccccc3C[S@+]4[O-])(c3ccc(Cl)c(Cl)c3)C2)cc(OC)c1OC | 8.51 | 9.14 | 7.68 | – | – | –
4 | COc1cc(C(=O)N2CCO[C@](CCN3CCC4(CC3)c3ccccc3C[C@@H]4O)(c3ccc(Cl)c(Cl)c3)C2)cc(OC)c1OC | 8.17 | 8.57 | 7.40 | – | – | –
5 | COc1cc(C(=O)N2CCO[C@@](CCN3CCC4(CC3)c3ccccc3C[C@@H]4O)(c3ccc(Cl)c(Cl)c3)C2)cc(OC)c1OC | < 6.00 | < 6.00 | < 6.00 | – | – | –
6 | COc1cc(C(=O)N2CCO[C@](CCN3CCC4(CC3)c3ccccc3C[C@H]4O)(c3ccc(Cl)c(Cl)c3)C2)cc(OC)c1OC | 7.35 | 7.77 | 6.57 | – | – | –
7 | COc1cc(C(=O)N2CCOC(CCN3CCC4(CC3)c3ccccc3C[S+]4[O-])(c3ccc(Cl)c(Cl)c3)C2)cc(OC)c1OC.Cl (configuration not stated) | – | – | – | 0.063 | 0.04 | 0.33
8 | COc1cc(C(=O)N2CCO[C@@](CCN3CCC4(CC3)c3ccccc3C[S@@+]4[O-])(c3ccc(Cl)c(Cl)c3)C2)cc(OC)c1OC (racemic) | < 6.00 | 6.18 | < 6.00 | – | – | –
9 | COc1cc(C(=O)N2CCO[C@@](CCN3CCC4(CC3)c3ccccc3C[C@H]4O)(c3ccc(Cl)c(Cl)c3)C2)cc(OC)c1OC (racemic) | < 6.00 | < 6.00 | < 6.00 | – | – | –
